Experiments:
[1] = Plasma pharmacokinetics of TP-1 in the Phase III study, day 1 and day 8 (steady state); format: in vivo, human; conditions: human, in vivo
Description: (§1) This study consisted of four visits to the study site. After the initial screening visit (Visit 1), subjects who met all study selection criteria were required to undergo a single-blind placebo run-in period for 7-10 days. Following the completion of the run-in period, eligible subjects meeting the randomization criteria were enrolled and randomized to one of the four treatment arms. Subjects were dispensed medication as per the randomization list. Randomized subjects were required to undergo a 2 week (14 days) treatment period as per the protocol to assess the efficacy and safety of the assigned treatment. Subjects were instructed to record the symptom scores in a symptom assessment diary. They were also scheduled to have at least two blood samples for PK assessment during the treatment period.
• Change from baseline in average AM and PM subject-reported 12-hour rTNSS (reflective TNSS) over the 14-day treatment period. Secondary Endpoints • Change from baseline in average AM and PM subject-reported 12-hour iTNSS (instantaneous TNSS) over the 14 day treatment period. • Change from baseline in average AM and PM subject-reported 12-hour rTOSS (reflective TOSS) over the 14-day treatment period. • Onset of action for each treatment are assessed by comparing the change from baseline in post-treatment iTNSS between each active treatment and placebo at defined time points (prior to first dose (pre-dose), 15 min, 30 min, 45 min, 60 min, 90 min, 120 min, 150 min, 180 min, 210 min, and 240 min) after the first study treatment for 4 hours. • Change from baseline in the overall Rhinoconjunctivitis Quality of Life questionnaire (RQLQ)—Standardized Activities (RQLQ(S)) score on Day 15 (Visit 4) for the Full Analysis Set (FAS). Pharmacokinetic Endpoints • Plasma PK: Maximum plasma concentration (Cmax), time to attain Cmax (Tmax), and area under the plasma concentration-time curve over the dosing interval (AUCtau) will be estimated for mometasone furoate and olopatadine on Day 1 and Day 8 based on the pharmacokinetic analysis set (PKAS). Tertiary Efficacy Endpoints Nasal Symptoms: • Change from baseline in AM subject-reported rTNSS over the 14-day treatment period. • Change from baseline in AM subject-reported iTNSS over the 14-day treatment period. • Change from baseline in PM subject-reported rTNSS over the 14-day treatment period. • Change from baseline in PM subject-reported iTNSS over the 14-day treatment period. • Change from baseline in subject-reported reflective individual nasal symptoms over the 14-day treatment period (AM, PM and average of AM and PM). • Change from baseline in subject-reported instantaneous individual nasal symptoms over the 14-day treatment period (AM, PM and average of AM and PM). • Change from baseline in average AM and PM subject-reported rTNSS and iTNSS for each day. • Change from baseline in AM subject-reported rTNSS and iTNSS for each day. • Change from baseline in PM subject-reported rTNSS and iTNSS for each day. […]

[2] = test system: total cells and eosinophils in nasal lavage; assay: Nasal lavage total cell count and eosinophils in ovalbumin induced rhinitis model; format: in vivo, guinea pigs; conditions: for Inhibition of total cell and eosinophils in nasal lavage (in words): MF 10 μg; for % inhibition of eosinophils / Percent inhibition of total cell count / Eosinophils × 10^5/ml nasal lavage / Total cell count × 10^5/ml nasal lavage: MF 10 μg per animal
Method: Male Dunkin Hartley guinea pigs were actively sensitized with a subcutaneous injection of 1.5 mg of ovalbumin and 20 mg of aluminum hydroxide gel on days 0 and 7. Guinea pigs were sensitized intranasally with 2% ovalbumin from days 14-17. On day 28, the animals were challenged with 6% ovalbumin intranasally. Mometasone furoate 10 μg was given intranasally 24 hours and 1 hour prior to the final ovalbumin challenge. Olopatadine hydrochloride was given intranasally 1 hour before the final ovalbumin challenge. The dosing volume was 40 μl/animal. The saline control group and ovalbumin control group received vehicle (40 μl, 0.1% Tween 80 in distilled water). Nasal lavage was performed at 4 hours after challenge of animals with saline or ovalbumin on day 28. Animals were anesthetized with an overdose of urethane, the trachea was exposed and nasal lavage was performed using 2 mL pre-warmed normal saline. The collected nasal lavage was taken for total cell count using a hemocytometer. The nasal lavage was centrifuged, and the cell pellet resuspended in 15 μL guinea pig serum and used for preparation of smears. Slides were stained with Leishman's stain and a differential cell count of 100 cells based on standard morphology was performed manually. The total number of eosinophils in each nasal lavage sample was calculated using the formula: [formula] Percent inhibition of eosinophils was calculated using the following formula: The procedure in Example 1 was repeated except 120 μg of olopatadine hydrochloride (based on the equivalent weight of olopatadine free base) was used. The animal groups in Table 3 below were used during this experiment. Compound administration was performed as in Example 1, except the dosing volume was 60 μl/animal. The saline control group and ovalbumin control group received vehicle (60 μl, 0.1% Tween 80 in distilled water). In vivo evaluations were performed as in Example 1.

sneezing response = assay: Sneezing response in ovalbumin induced rhinitis model (whole body plethysmography); format: in vivo, guinea pigs; conditions: for Inhibition of sneezing response (in words) / Number of Sneeze (0-50 min): MF 10 μg; for Percent inhibition of sneeze: MF 10 μg per animal, vs ovalbumin control; for Number of Sneeze (0-50 min): intranasal, ovalbumin challenged
Method: Male Dunkin Hartley guinea pigs were actively sensitized with a subcutaneous injection of 1.5 mg of ovalbumin and 20 mg of aluminum hydroxide gel on days 0 and 7. Guinea pigs were sensitized intranasally with 2% ovalbumin from days 14-17. On day 28, the animals were challenged with 6% ovalbumin intranasally. Mometasone furoate 10 μg was given intranasally 24 hours and 1 hour prior to the final ovalbumin challenge. Olopatadine hydrochloride was given intranasally 1 hour before the final ovalbumin challenge. The dosing volume was 40 μl/animal. The saline control group and ovalbumin control group received vehicle (40 μl, 0.1% Tween 80 in distilled water). Sneezing response was determined by using whole body plethysmography (Buxco Research Systems, USA) for 50 minutes after final saline or ovalbumin challenge. The procedure in Example 1 was repeated except 120 μg of olopatadine hydrochloride (based on the equivalent weight of olopatadine free base) was used. The animal groups in Table 3 below were used during this experiment. Compound administration was performed as in Example 1, except the dosing volume was 60 μl/animal. The saline control group and ovalbumin control group received vehicle (60 μl, 0.1% Tween 80 in distilled water). In vivo evaluations were performed as in Example 1.

[3] = Crystallization of olopatadine hydrochloride in the fixed dose combination aqueous suspension versus pH; format: physicochemical
[4] = Pharmacokinetics of olopatadine, single-dose three-period cross-over study, Example 12; format: in vivo, human; conditions: single dose nasal spray
Method: The pharmacokinetics of olopatadine in a fixed dose combination of mometasone furoate and olopatadine hydrochloride nasal spray was evaluated in a clinical trial. The clinical trial was a randomized, single-center, single-dose, open-label, three-period, six-sequence, cross-over study to evaluate three treatments administered as a nasal spray. The three treatments included a combination of mometasone furoate and olopatadine hydrochloride nasal spray, olopatadine hydrochloride nasal spray and […]® nasal spray. […] The study consisted of a screening visit, 3 single-dose treatment periods with washout periods of 7 to 14 days between dosing in each treatment period, an early withdrawal visit if applicable, and a follow-up telephone call (or visit) 1 to 7 days after completing the third treatment period. A total of 30 subjects were randomized to 1 of 6 treatment sequences and received at least 1 dose of study drug. All 30 subjects were included in the safety analysis set and the pharmacokinetic subset. All but 2 subjects completed the study per protocol.

[5] = test system: seasonal allergic rhinitis (SAR); assay: Phase III clinical study in SAR, fall and mountain cedar season, Example 6; conditions: human, in vivo
Description: A total of 1,176 randomized subjects (˜294 subjects per treatment arm) were enrolled in the study.
Subjects were randomized to treatment in a 1:1:1:1 ratio to the following four treatment arms, at multiple study sites.
as §1, with “diary.” for “diary. They were also scheduled to have at least two blood samples for PK assessment during the treatment period.”
• Change from baseline in average AM and PM subject-reported 12-hour rTNSS (reflective TNSS) over the 14-day treatment period. […] The non-nasal symptoms are assessed in a similar manner to the ocular symptoms above. […]

[6] = Example 1, OH 50 μg, 4 hours after challenge

CN(C)CC/C=C1/c2ccccc2COc2ccc(CC(=O)O)cc21.Cl [Olopatadine Hydrochloride, (Z)-11-[3-(dimethylamino)propylidene]-6,11-dihydrodibenz[b,e]oxepin-2-acetic acid hydrochloride]
Olopatadine Tmax, Median [1]: 1.00 h | Inhibition of total cell and eosinophils in nasal lavage (in words) ([2]; Example 1, OH 50 μg): did not show significant inhibition | % inhibition of eosinophils ([2]; Example 1, OH 50 μg): 2% | Percent inhibition of total cell count ([2]; Example 1, OH 50 μg): 3% | Eosinophils × 10^5/ml nasal lavage [2, 6]: 3.64 × 10^5/ml | Total cell count × 10^5/ml nasal lavage [2, 6]: 6.63 × 10^5/ml | Inhibition of total cell and eosinophils in nasal lavage (in words) ([2]; Example 2, OH 120 μg): did not show significant inhibition | % inhibition of eosinophils ([2]; Example 2, OH 120 μg): 8% | Eosinophils × 10^5/ml nasal lavage ([2]; Example 2, OH 120 μg): 3.08 × 10^5/ml | Percent inhibition of total cell count ([2]; Example 2, OH 120 μg): 17% | Total cell count × 10^5/ml nasal lavage ([2]; Example 2, OH 120 μg): 5.83 × 10^5/ml | Inhibition of sneezing response (in words) (sneezing response; Example 1, OH 50 μg): did not show significant inhibition | Percent inhibition of sneeze (sneezing response; Example 1, OH 50 μg): 45% | Number of Sneeze (0-50 min) (sneezing response; Example 1, per animal: OH 50 μg, combination 50 (OH) & 10 (MF)): 12.29 | Inhibition of sneezing response (in words) (sneezing response; Example 2, OH 120 μg): did not show significant inhibition | Percent inhibition of sneeze (sneezing response; Example 2, OH 120 μg): 51% | Number of Sneeze (0-50 min) (sneezing response; Example 2, per animal: OH 120 μg, combination 120 (OH) & 10 (MF)): 17.90 | State of olopatadine hydrochloride in the fixed dose combination aqueous suspension ([3]; pH of 5 to 5.5): crystallizes out | State of olopatadine hydrochloride in the aqueous suspension ([3]; pH of about 3.3 to about 4.1): remains dissolved | Last time point until which quantifiable concentrations were observed [4]: 48 h

Mometasone Furoate Monohydrate and Olopatadine Hydrochloride Nasal Spray (25 mcg+600 mcg) [TP-1]
Urinary tract infection reported as adverse event [5]: 1%

Source: patent US11400101B2, “Treatment of allergic rhinitis using a combination of mometasone and olopatadine” (GLENMARK SPECIALTY S.A., priority 2013, dated 2022)
